Here are results for 28 compounds from ChEMBL document CHEMBL4483862, “Open-source discovery of chemical leads for next-generation chemoprotective antimalarials” (2018).

Where only a bound is given, the exact number is not on record here.

For this assay, the system named is Plasmodium berghei. The experiment in a line: Luciferase/luciferin-expressing antifolate-resistant parasites were used to infect a culture of HepG2 cells that were pre-incubated with compounds. Infected hepatocytes emit light due to the luciferase reaction. Assay results are presented as the percent inhibition of light emission compared to control. […]. Type of assay: functional. As to conditions: sporozoite; for IC90: read-out: LUCIFERASE INFECTION ASSAY - IC90.

As usually defined, the IC50 is the point on the concentration scale where inhibition reaches its midpoint. In general, IC90 refers to the point of the concentration-response curve where the effect stands at 90%. For `CC1CCCCC1NC(=O)/C(C#N)=C/C=C/c1ccccc1[N+](=O)[O-]` (stereo unspecified), the IC90 was above 10 µM. Moreover, the IC50 (HEPG2TOX_HILL_SLOPE 14.8, 8.85, HEPG2TOX_R_SQUARED 0.251, 0.979, PBLUC_HILL_SLOPE 2.96, PBLUC_R_SQUARED 0.503, read-out: LUCIFERASE INFECTION ASSAY - IC50) came out at 8.55 µM.
Take `O=c1c(Br)c(Br)cnn1-c1ccccc1`: the IC90 is above 10 µM. Also, the IC50 (HEPG2TOX_HILL_SLOPE 14.1, HEPG2TOX_R_SQUARED 0.656, PBLUC_HILL_SLOPE 2.79, PBLUC_R_SQUARED 0.266, read-out: LUCIFERASE INFECTION ASSAY - IC50) stood at 6.1 µM.
As for `O=C(Nc1ccc(Cl)cc1)Nc1csc([N+](=O)[O-])c1`, the IC90 worked out at 10 µM. Also, the IC50 (HEPG2TOX_HILL_SLOPE 14.4, HEPG2TOX_R_SQUARED 0.942, PBLUC_HILL_SLOPE 1.2, PBLUC_R_SQUARED 0.682, read-out: LUCIFERASE INFECTION ASSAY - IC50) turned out to be 1.62 µM.
On to `O=C(Nc1ccc(F)cc1F)c1cc(Cl)ccc1O`, for which the IC90 stood at 4.37 µM. The IC50 (HEPG2TOX_HILL_SLOPE 14.4, HEPG2TOX_R_SQUARED 0.715, PBLUC_HILL_SLOPE 17.6, PBLUC_R_SQUARED 0.0303, read-out: LUCIFERASE INFECTION ASSAY - IC50) came out at 3.86 µM.
Take `COc1ccc(Oc2ccc(/C=C/C(=O)c3ccc(N4CCN(C)CC4)cc3)cc2[N+](=O)[O-])cc1`: the IC90 was 4.34 µM. In addition, the IC50 (HEPG2TOX_HILL_SLOPE 14.7, HEPG2TOX_R_SQUARED 0.729, PBLUC_HILL_SLOPE 20.7, PBLUC_R_SQUARED 0.331, read-out: LUCIFERASE INFECTION ASSAY - IC50) turned out to be 3.9 µM.
On to `Cc1nc(-c2ccc(CCNC(=O)c3ccc(S(C)(=O)=O)c([N+](=O)[O-])c3)cc2)cs1`, for which the IC90 came to 5.46 µM. Besides, the IC50 (HEPG2TOX_HILL_SLOPE 14.7, HEPG2TOX_R_SQUARED 0.837, PBLUC_HILL_SLOPE 381, PBLUC_R_SQUARED 0.298, read-out: LUCIFERASE INFECTION ASSAY - IC50) amounted to 5.43 µM.
As to `O=C(/C=C/c1ccc(F)cc1)Nc1cc([N+](=O)[O-])c(F)cc1F`, the IC90 is above 10 µM. The IC50 (HEPG2TOX_HILL_SLOPE 14.4, HEPG2TOX_R_SQUARED 0.364, PBLUC_HILL_SLOPE 4.24, PBLUC_R_SQUARED 0.457, read-out: LUCIFERASE INFECTION ASSAY - IC50) is 8.62 µM.
As for `Cc1nn(-c2ccccc2)c(C)c1C(=O)ONC(=N)c1ccc(C(C)(C)C)cc1`, the 90% effect concentration (IC90) was 3.03 µM. In addition, the IC50 (HEPG2TOX_HILL_SLOPE 14.9, HEPG2TOX_R_SQUARED 0.924, PBLUC_HILL_SLOPE 26.9, PBLUC_R_SQUARED 0.601, read-out: LUCIFERASE INFECTION ASSAY - IC50) was 2.79 µM.
Turning to `COc1ccc2cc(CN(C)C(C)C(=O)NCc3ccc(F)cc3)ccc2c1` (stereo unspecified), the IC90 was above 10 µM. The IC50 (HEPG2TOX_HILL_SLOPE 14.9, HEPG2TOX_R_SQUARED 0.671, read-out: LUCIFERASE INFECTION ASSAY - IC50) is above 10 µM.
Take `CCNC(=O)NC(=O)C(C)OC(=O)c1c(C)c(CC)nc2ccccc12` (stereo unspecified): the IC90 is above 10 µM. Further, the IC50 (HEPG2TOX_HILL_SLOPE 14.2, HEPG2TOX_R_SQUARED 0.666, PBLUC_HILL_SLOPE 0.849, PBLUC_R_SQUARED 0.474, read-out: LUCIFERASE INFECTION ASSAY - IC50) came out at 4.39 µM.
For `O=C(NCCO)c1cccc(-c2ccc3ncc(-c4cccc(O)c4)n3n2)c1`, the IC90 turned out to be 9.64 µM. Also, the half-maximal inhibitory concentration (IC50) (HEPG2TOX_HILL_SLOPE 14.1, HEPG2TOX_R_SQUARED 0.658, PBLUC_HILL_SLOPE 25.2, PBLUC_R_SQUARED 0.24, read-out: LUCIFERASE INFECTION ASSAY - IC50) is 8.83 µM.
In the case of `CCOc1ccc2ccccc2c1/C=C/c1ccc2cccc(O)c2n1`, the IC90 stood at 3.84 µM. For the same compound, where the note is “HEPG2TOX_HILL_SLOPE 14.8, HEPG2TOX_R_SQUARED 0.407, PBLUC_HILL_SLOPE 11.5, PBLUC_R_SQUARED 0.372, read-out: LUCIFERASE INFECTION ASSAY - IC50”, the IC50 stood at 3.17 µM.
On to `CC(C)(C)NC(=O)c1csc(C(O)c2cccc(C(F)(F)F)c2)n1` (stereo unspecified), for which the concentration for an effect of 90% (IC90) is above 10 µM. Further, the IC50 (HEPG2TOX_HILL_SLOPE 14.6, HEPG2TOX_R_SQUARED 0.662, PBLUC_HILL_SLOPE 2.89, PBLUC_R_SQUARED 0.602, read-out: LUCIFERASE INFECTION ASSAY - IC50) came out at 4.91 µM.
On to `CCn1c(C)nc2cc(C(=O)N/N=C/c3sc(N4CCCCC4)nc3-c3cccs3)ccc21`, for which the IC90 amounted to 4.03 µM. Further, the IC50 (HEPG2TOX_HILL_SLOPE 15, HEPG2TOX_R_SQUARED 0.462, PBLUC_HILL_SLOPE 10.3, PBLUC_R_SQUARED 0.738, read-out: LUCIFERASE INFECTION ASSAY - IC50) was 3.26 µM.
In the case of `O=C(Nc1nc(-c2ccc3c(c2)CCC3)cs1)c1ccc(CSc2nnc[nH]2)cc1`, the IC90 was above 10 µM. Also, the IC50 (HEPG2TOX_HILL_SLOPE 14.2, HEPG2TOX_R_SQUARED 0.936, PBLUC_HILL_SLOPE 3.67, PBLUC_R_SQUARED 0.0328, read-out: LUCIFERASE INFECTION ASSAY - IC50) stood at 6.58 µM.
In the case of `Cc1cccc(C)c1-n1nnnc1Sc1nc(CN2CCOCC2)nc2sc(C)c(C)c12`, the concentration for an effect of 90% (IC90) was above 10 µM. For the same compound, where the note is “HEPG2TOX_HILL_SLOPE 14.5, 28.4, HEPG2TOX_R_SQUARED 0.890, 0.649, PBLUC_HILL_SLOPE 85.3, 7.09, PBLUC_R_SQUARED 0.147, 0.386, read-out: LUCIFERASE INFECTION ASSAY - IC50”, the IC50 came to 8.67 µM.
For the compound `CCCNC(=O)c1c(NC(=O)c2ccc(CC)cc2)nc2ccc(C)cn12`, the IC90 stood at 3.22 µM. Besides, the IC50 (HEPG2TOX_HILL_SLOPE 14.6, HEPG2TOX_R_SQUARED 0.266, PBLUC_HILL_SLOPE 22.2, PBLUC_R_SQUARED 0.534, read-out: LUCIFERASE INFECTION ASSAY - IC50) worked out at 2.92 µM.
As for `COc1ccc(OC)c(C(=O)/C=C/c2cc(Br)cs2)c1`, the IC90 amounted to 5.17 µM. For the same compound, the IC50 (HEPG2TOX_HILL_SLOPE 14.7, HEPG2TOX_R_SQUARED 0.849, PBLUC_HILL_SLOPE 92.6, PBLUC_R_SQUARED 0.363, read-out: LUCIFERASE INFECTION ASSAY - IC50) is 5.05 µM.
For `O=C(NNC(=O)c1cnc2ccccn2c1=O)c1cc(Cl)ccc1O`, the IC90 was 4.25 µM. Also, where the note is “HEPG2TOX_HILL_SLOPE 14.4, HEPG2TOX_R_SQUARED 0.595, PBLUC_HILL_SLOPE 11.5, PBLUC_R_SQUARED 0.377, read-out: LUCIFERASE INFECTION ASSAY - IC50”, the IC50 turned out to be 3.51 µM.
For `CCOC(=O)c1c(NC(=O)Cn2ncc(Cl)c(Cl)c2=O)sc(C(=O)NC)c1C`, the concentration for an effect of 90% (IC90) turned out to be 6.18 µM. The IC50 (HEPG2TOX_HILL_SLOPE 14.3, HEPG2TOX_R_SQUARED 0.883, PBLUC_HILL_SLOPE 2.04, PBLUC_R_SQUARED 0.801, read-out: LUCIFERASE INFECTION ASSAY - IC50) stood at 2.11 µM.
With `COc1ccc(-c2noc(CN3CCN(C(=O)c4nn(-c5cccc(Cl)c5)nc4C)CC3)n2)cc1`, the IC90 was above 10 µM. Besides, the IC50 (HEPG2TOX_HILL_SLOPE 14.4, HEPG2TOX_R_SQUARED 0.481, PBLUC_HILL_SLOPE 15.9, PBLUC_R_SQUARED 0.0941, read-out: LUCIFERASE INFECTION ASSAY - IC50) is 9.11 µM.
As for `CCc1ccc2nc(NC(=O)c3cnccn3)sc2c1`, the concentration for an effect of 90% (IC90) was determined as 9.66 µM. Further, the IC50 (HEPG2TOX_HILL_SLOPE 14.5, HEPG2TOX_R_SQUARED 0.913, PBLUC_HILL_SLOPE 21.7, PBLUC_R_SQUARED 0.176, read-out: LUCIFERASE INFECTION ASSAY - IC50) came to 8.73 µM.
In the case of `Fc1cccc(-c2cc3c(Nc4ccc5c(c4)OCCO5)nccc3[nH]2)c1`, the 90% effect concentration (IC90) is 7.25 µM. In addition, where the note is “HEPG2TOX_HILL_SLOPE 14.3, HEPG2TOX_R_SQUARED 0.604, PBLUC_HILL_SLOPE 1.45, PBLUC_R_SQUARED 0.727, read-out: LUCIFERASE INFECTION ASSAY - IC50”, the IC50 was 1.59 µM.
As for `CN(C)C(=O)c1ccc(-c2ccnc3n[nH]c(-c4ccc(N(C)C)cc4)c23)cc1`, the IC90 was 5.06 µM. For the same compound, the IC50 (HEPG2TOX_HILL_SLOPE 14.4, HEPG2TOX_R_SQUARED 0.857, PBLUC_HILL_SLOPE 6.94, PBLUC_R_SQUARED 0.445, read-out: LUCIFERASE INFECTION ASSAY - IC50) was 3.69 µM.
Consider `CCc1cccc2c(C3=NNC(=Nc4ccc(S(=O)(=O)N5CCOCC5)cc4)SC3)c[nH]c12`, for which the IC90 was above 10 µM. The IC50 (HEPG2TOX_HILL_SLOPE 14.9, HEPG2TOX_R_SQUARED 0.843, PBLUC_HILL_SLOPE 3.05, PBLUC_R_SQUARED 0.104, read-out: LUCIFERASE INFECTION ASSAY - IC50) is 5.65 µM.
With `CCN(c1ccc(NC(=O)c2ccc3c(c2)NC(=O)CS3)cc1)C(C)C`, the IC90 was found to be 3.68 µM. The IC50 (HEPG2TOX_HILL_SLOPE 14.6, HEPG2TOX_R_SQUARED 0.71, PBLUC_HILL_SLOPE 18.6, PBLUC_R_SQUARED 0.967, read-out: LUCIFERASE INFECTION ASSAY - IC50) amounted to 3.27 µM.
As for `O=C(NCCCn1cnc2ccccc21)c1[nH]nc2ccccc12`, the IC90 is above 10 µM. Where the note is “HEPG2TOX_HILL_SLOPE 14.9, HEPG2TOX_R_SQUARED 0.872, PBLUC_HILL_SLOPE 4.15, PBLUC_R_SQUARED 0.429, read-out: LUCIFERASE INFECTION ASSAY - IC50”, the IC50 worked out at 6.32 µM.
As for `CN1CCN(c2ccc(CNc3ccc4ncc(-c5ccc(OC(F)(F)F)cc5)n4n3)cc2)CC1`, the IC90 stood at 6.12 µM. Besides, the IC50 (HEPG2TOX_HILL_SLOPE 14.3, HEPG2TOX_R_SQUARED 0.469, PBLUC_HILL_SLOPE 4.14, PBLUC_R_SQUARED 0.775, read-out: LUCIFERASE INFECTION ASSAY - IC50) stood at 3.6 µM.
